What was measured:
[1] = target: Mnk1 (Homo sapiens (Human), UniProt Q9BUB5); assay: Mnk1 kinase inhibition, ADP-Glo ADP monitoring assay; assay type: biochemical; settings: read-out: Mnk1 IC50
Description: (§1) The synthesized compounds then were tested for inhibition of the kinase activity (IC50) of Mnk1 and/or Mnk2 using the ADP monitoring assay for kinases described in Zegzouti, H.; Zdanovskaia, M.; Hsiao, K.; Goueli, S. A., ADP-Glo: A Bioluminescent and homogeneous ADP monitoring assay for kinases.

[2] = target: Mnk2 (Homo sapiens (Human), UniProt Q9HBH9); assay: Mnk2 kinase inhibition, ADP-Glo ADP monitoring assay; assay type: biochemical; settings: ADP-Glo kinase assay; read-out: Mnk2 IC50
Mnk2, sequence (Q9HBH9 whole entry): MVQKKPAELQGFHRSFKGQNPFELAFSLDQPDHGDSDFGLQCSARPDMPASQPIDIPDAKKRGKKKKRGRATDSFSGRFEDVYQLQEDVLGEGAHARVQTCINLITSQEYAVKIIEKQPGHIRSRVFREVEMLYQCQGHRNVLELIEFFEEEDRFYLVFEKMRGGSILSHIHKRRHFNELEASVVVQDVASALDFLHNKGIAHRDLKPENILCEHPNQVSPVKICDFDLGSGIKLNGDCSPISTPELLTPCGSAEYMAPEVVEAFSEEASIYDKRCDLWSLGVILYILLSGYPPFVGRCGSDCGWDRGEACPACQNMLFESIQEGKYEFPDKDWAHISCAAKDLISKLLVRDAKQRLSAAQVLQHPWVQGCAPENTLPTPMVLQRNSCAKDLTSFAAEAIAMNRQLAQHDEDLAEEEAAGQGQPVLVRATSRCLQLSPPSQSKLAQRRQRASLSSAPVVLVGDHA
Description: as §1

Mnk1, sequence (Q9BUB5 whole entry): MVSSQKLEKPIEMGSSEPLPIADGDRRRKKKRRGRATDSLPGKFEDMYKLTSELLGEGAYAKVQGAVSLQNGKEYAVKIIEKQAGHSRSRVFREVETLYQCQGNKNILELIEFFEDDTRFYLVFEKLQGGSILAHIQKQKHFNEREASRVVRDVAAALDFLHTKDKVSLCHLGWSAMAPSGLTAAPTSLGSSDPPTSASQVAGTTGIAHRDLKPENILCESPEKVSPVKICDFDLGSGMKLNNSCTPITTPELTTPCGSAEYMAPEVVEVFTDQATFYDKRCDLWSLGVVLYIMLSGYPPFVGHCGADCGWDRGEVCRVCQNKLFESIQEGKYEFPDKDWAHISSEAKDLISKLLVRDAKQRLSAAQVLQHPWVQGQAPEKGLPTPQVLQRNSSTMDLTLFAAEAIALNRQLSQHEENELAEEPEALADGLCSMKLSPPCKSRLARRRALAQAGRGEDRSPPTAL

Structure (SMILES): CCNc1nccc(-c2cnn(-c3cccc(OC)c3)c2)n1 [NUCC-0054132]
- IC50 [1]: 9 µM

Structure (SMILES): COc1cccc(-n2cc(-c3ccnc(NCCc4c[nH]cn4)n3)cn2)c1 [NUCC-0054133]
- IC50 [1]: 7 µM
- IC50 [2]: 1.8 µM

Structure (SMILES): Clc1cccc(-n2cc(-c3ccnc(NCc4ccncc4)n3)cn2)c1 [NUCC-0054134]
- IC50 [1]: 6 µM

Structure (SMILES): COc1cccc(-n2cc(-c3ccnc(NCCN4CCOCC4)n3)cn2)c1 [NUCC-0054138]
- IC50 [1]: 12 µM

Structure (SMILES): CCCn1ncc(-c2ccnc(NCc3nccn3CC)n2)c1C [NUCC-0054147]
- IC50 [1]: 6 µM
- IC50 [2]: 16 µM

Structure (SMILES): Cn1cc(-c2ccnc(NCCN3CCOCC3)n2)cn1 [NUCC-0060894]
- IC50 [1]: 4 µM

Structure (SMILES): Cn1cc(-c2ccnc(NCCCN3CCCCC3)n2)cn1 [NUCC-0060895]
- IC50 [1]: 5 µM

Structure (SMILES): Cn1cc(-c2ccnc(N3CCC[C@H]3CO)n2)cn1 [NUCC-0060896]
- IC50 [1]: 3 µM
- IC50 [2]: 3.4 µM

Structure (SMILES): Cn1cc(-c2ccnc(NCc3ccc(F)cc3)n2)cn1 [NUCC-0060897]
- IC50 [1]: 9 µM

Structure (SMILES): c1ccc2c(c1)ccn2-c1ccnc(NCCN2CCOCC2)n1 [NUCC-0060953]
- IC50 [1]: 9 µM

Structure (SMILES): c1ccc2c(c1)ccn2-c1ccnc(NCCc2cnc[nH]2)n1 [NUCC-0060955]
- IC50 [1]: 16 µM
- IC50 [2]: 5 µM

Structure (SMILES): c1ccc2c(c1)ncn2-c1ccnc(NCCN2CCOCC2)n1 [NUCC-0060956]
- IC50 [1]: 1 µM

Structure (SMILES): c1cc(CNc2nccc(-c3cnn(C4CCOCC4)c3)n2)ccn1 [NUCC-0060959]
- IC50 [1]: 90 µM

Structure (SMILES): c1ccc(-n2cc(-c3ccnc(NCCc4c[nH]cn4)n3)cn2)cc1 [NUCC-0060965]
- IC50 [1]: 30 µM

Structure (SMILES): c1cc(CCNc2nccc(-c3cnn(CCN4CCOCC4)c3)n2)ccn1 [NUCC-0060970]
- IC50 [1]: 70 µM

Structure (SMILES): c1ccc(Cn2cc(-c3ccnc(NCCc4c[nH]cn4)n3)cn2)cc1 [NUCC-0060971]
- IC50 [1]: 19 µM

Structure (SMILES): c1ccc(Cn2cc(-c3ccnc(NCCc4ccncc4)n3)cn2)cc1 [NUCC-0060972]
- IC50 [1]: 19 µM
- IC50 [2]: 2.5 µM

Structure (SMILES): COc1cccc(-n2cc(-c3ccnc(NCCCN4CCOCC4)n3)cn2)c1 [NUCC-0077154, 4-(1-(3-methoxyphenyl)-1H-pyrazol-4-yl)-N-(3-morpholinopropyl)pyrimidin-2-amine]
- IC50 [1]: 28 µM

Structure (SMILES): COc1cccc(-n2cc(-c3ccnc(NCc4ccccc4)n3)cn2)c1 [NUCC-0077155]
- IC50 [1]: 21 µM

Structure (SMILES): COc1cccc(-n2cc(-c3ccnc(NCc4ccncc4)n3)cn2)c1 [NUCC-0077163]
- IC50 [1]: 8 µM

Structure (SMILES): COc1cccc(-n2cc(-c3ccnc(NC4CCNCC4)n3)cn2)c1 [NUCC-0077164]
- IC50 [1]: 6 µM

Structure (SMILES): COc1cccc(-n2cc(-c3ccnc(NC4CCOC4)n3)cn2)c1 (stereo not shown) [NUCC-0077165]
- IC50 [1]: 6 µM

Structure (SMILES): COc1cccc(-n2cc(-c3ccnc(NCCN(C)C)n3)cn2)c1 [NUCC-0077166]
- IC50 [1]: 4 µM

Structure (SMILES): c1ccc(Cn2cc(-c3ccnc(NCCc4c[nH]cn4)c3)cn2)cc1 [NUCC-0077167]
- IC50 [1]: 8 µM
- IC50 [2]: 7.6 µM

Structure (SMILES): COc1cccc(-n2cc(-c3ccnc(Nc4ccncc4)n3)cn2)c1 [NUCC-0077168]
- IC50 [1]: 19 µM

Structure (SMILES): CN(C)CCNc1nccc(-n2cnc3ccccc32)n1 [NUCC-0125582]
- IC50 [1]: 0.5 µM
- IC50 [2]: 0.048 µM

Structure (SMILES): c1ccc2c(c1)ncn2-c1ccnc(NC2CCNCC2)n1 [NUCC-0125584]
- IC50 [1]: 1.4 µM

Structure (SMILES): c1ccc2c(c1)ncn2-c1ccnc(NCc2ccncc2)n1 [NUCC-0125586]
- IC50 [1]: 0.5 µM

Structure (SMILES): CN1CCN(c2ccc(Nc3nccc(-n4cnc5ccccc54)n3)cc2)CC1 [NUCC-0125587]
- IC50 [1]: 0.5 µM

Structure (SMILES): c1ccc2c(c1)ncn2-c1ccnc(Nc2ccc(N3CCCCC3)cc2)n1 [NUCC-0125588]
- IC50 [1]: 0.2 µM

Structure (SMILES): COc1cccc(-n2cc(-c3ccnc(NC4CCNC4)n3)cn2)c1 (stereo not shown) [NUCC-0125590]
- IC50 [1]: 6 µM
- IC50 [2]: 0.78 µM

Structure (SMILES): COc1cccc(-n2cc(-c3ccnc(NC4CCOCC4)n3)cn2)c1 [NUCC-0125591]
- IC50 [1]: 21 µM

Structure (SMILES): c1ccc2c(c1)ncn2-c1ccnc(Nc2ccc(-n3cccn3)cc2)n1 [NUCC-0125593]
- IC50 [1]: 0.65 µM
- IC50 [2]: 0.039 µM

Structure (SMILES): NC(=O)c1ccc(Nc2nccc(-n3cnc4ccccc43)n2)cc1 [NUCC-0125594]
- IC50 [1]: 0.7 µM
- IC50 [2]: 0.03 µM

Structure (SMILES): c1ccc2c(c1)ncn2-c1ccnc(NC2CCOCC2)n1 [NUCC-0125595]
- IC50 [1]: 0.5 µM
- IC50 [2]: 0.083 µM

Structure (SMILES): CNC(=O)c1ccc(Nc2nccc(-n3cnc4ccccc43)n2)cc1 [NUCC-0125596]
- IC50 [1]: 0.2 µM
- IC50 [2]: 0.034 µM

Structure (SMILES): O=C(c1ccc(Nc2nccc(-n3cnc4ccccc43)n2)cc1)N1CCNCC1 [NUCC-0125597]
- IC50 [1]: 6 µM

Structure (SMILES): COc1cccc(-c2cn(-c3ccnc(NCCc4c[nH]cn4)n3)c3ccccc23)c1 [NUCC-0125599]
- IC50 [1]: 29 µM
- IC50 [2]: 6.2 µM

Structure (SMILES): COc1cccc(-n2cc(-c3ccnc(NCCc4ccncc4)c3)cn2)c1 [NUCC-0125601]
- IC50 [1]: 5 µM
- IC50 [2]: 1.7 µM

Structure (SMILES): COc1cnc(NCCc2ccncc2)nc1-n1cnc2ccccc21 [NUCC-0175698]
- IC50 [1]: 5 µM
- IC50 [2]: 1.8 µM

Source: patent publication US10851082B2, “Substituted aromatic n-heterocyclic compounds as inhibitors of mitogen-activated protein kinase interacting kinase 1 (MNK1) and 2 (MNK2)” (Northwestern University, priority 2015, dated 2020)
